Target: ROCK2 (Homo sapiens (Human), UniProt O75116)
Test: ROCK2 kinase IC50 assay (CISBIO HTRF KinEASE-STK S2 kit)
Format: biochemical
Conditions: ROCK2 from Carna Biosciences, 2 h incubation at room temperature
Procedure: The kinase IC50 was determined by a commercialized CISBIO kinase detection kit, HTRF KinEASE-STK S2 kit (62ST2PEC). ROCK2 (01-119) employed in the reaction was purchased from Carna Biosciences.
Before the assay, the following working solutions as needed were formulated with corresponding reagents according to the instruction of the kinase detection kit: 1×kinase buffer, 5×STK-52 substrate working solution (1.5 μM) and 5×ATP working solution (1.5 μM), 5×ROCK2 kinase working solution, 4×Streptavidin-XL665 working solution, and 4×STK-Ab-Cryptate 2 detection solution. Then the assay was performed according to the following procedure.
A solution of a compound at a concentration of 10000 nM was prepared with the 1×kinase buffer containing 2.5% DMSO. Gradient dilution of the solution of the compound was performed with the kinase buffer containing DMSO, so as to obtain solutions of a test compound at 9 different concentrations. In addition to wells of test compounds, a positive well (containing all the reagents except the compound) and a negative well (containing all the reagents except the test compound and kinase) were set. Except for the control wells (positive and negative wells), a solution of a test compound (4 μL) was added to each of the reaction wells, and a solution of 2.5% DMSO was added to the control wells. Then the substrate (2 μM, i.e., 2 μL 5×STK-S2 substrate working solution) was added to each of the reaction wells. The 5×ROCK2 kinase working solution (2 μL, containing 1.4 ng ROCK2 kinase) was added to each of the reaction wells except for the negative well, the volume of which was made up with the 1×kinase buffer (2 μL). The 5×ATP working solution (2 μL) was added to each of the reaction wells, and the mixtures were incubated at room temperature for 2 hours. After the kinase reaction was complete, the 4×Streptavidin-XL665 working solution was added to each of the reaction wells, the solutions were mixed, followed by immediate addition of the 4×STK-Ab-Cryptate 2 detection solution (5 μL), and the mixtures were incubated at room temperature for 1 hour. The fluorescence signal was read on ENVISION (Perkinelmer) (excitation wavelength: 320 nm, and emission wavelength: 665 nm and 615 nm). The inhibitory rate in each well was calculated based on the fluorescence intensity value: ER (Emission Ratio)=(fluorescence intensity at 665 nm/fluorescence intensity at 615 nm); inhibitory rate=(ERpositive−ERtest compound) (ERpositive−ERnegative)*100%. Curves were plotted and fitted to obtain the median inhibitory concentration (IC50) of each teat compound with the PRISM 5.0 software.

Chain of ROCK2 (O75116 1-553): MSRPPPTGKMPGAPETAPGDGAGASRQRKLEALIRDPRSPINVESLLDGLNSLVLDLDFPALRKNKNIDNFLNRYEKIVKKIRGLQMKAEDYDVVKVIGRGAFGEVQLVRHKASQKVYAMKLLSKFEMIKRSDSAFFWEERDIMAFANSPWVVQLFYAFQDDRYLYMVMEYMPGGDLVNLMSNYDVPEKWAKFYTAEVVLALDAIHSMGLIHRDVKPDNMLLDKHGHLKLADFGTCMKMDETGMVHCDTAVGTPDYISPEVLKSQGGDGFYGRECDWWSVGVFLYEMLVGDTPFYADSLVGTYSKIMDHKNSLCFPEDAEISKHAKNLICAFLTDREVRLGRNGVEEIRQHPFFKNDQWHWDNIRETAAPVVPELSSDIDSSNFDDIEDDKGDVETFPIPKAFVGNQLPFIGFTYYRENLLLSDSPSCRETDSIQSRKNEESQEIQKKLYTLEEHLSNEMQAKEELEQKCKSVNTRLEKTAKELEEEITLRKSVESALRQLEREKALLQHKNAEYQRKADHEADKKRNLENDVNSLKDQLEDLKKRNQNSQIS

IC50 [nM]	SMILES
28	CC(CO)NC(=O)c1cc2ccc(-c3nccc(Nc4ccc5[nH]ncc5c4)n3)cc2[nH]1 (centres unmarked) [TDI01176, 6-(4-((1H-indazol-5-yl)amino)pyrimidin-2-yl)-N-(1-hydroxypropan-2-yl)-1H-indole-2-carboxamide]
46	O=C(Nc1ccc2[nH]ncc2c1)c1cc2ccc(-c3nccc(Nc4ccc5[nH]ncc5c4)n3)cc2[nH]1 [TDI01182, 6-(4-((1H-indazol-5-yl)amino)pyrimidin-2-yl)-N-(1H-indazol-5-yl)-1H-indole-2-carboxamide]
30	O=C(Nc1cn[nH]c1)c1cc2ccc(-c3nccc(Nc4ccc5[nH]ncc5c4)n3)cc2[nH]1 [TDI01199, 6-(4-((1H-indazol-5-yl)amino)pyrimidin-2-yl)-N-(1H-pyrazol-4-yl)-1H-indole-2-carboxamide]
23	CC(C)(C)OC(=O)n1cc(NC(=O)c2cc3ccc(-c4nccc(Nc5ccc6[nH]ncc6c5)n4)cc3[nH]2)cn1 [TDI01200, tert-butyl 4-(6-(4-((1H-indazol-5-yl)amino)pyrimidin-2-yl)-1H-indole-2-carboxamido)-1H-pyrazole-1-carboxylate]
382	O=C(Nc1ccccc1)c1cc2ccc(-c3nccc(Nc4ccc5[nH]ncc5c4)n3)cc2[nH]1 [TDI01215, 6-(4-((1H-indazol-5-yl)amino)pyrimidin-2-yl)-N-phenyl-1H-indole-2-carboxamide]
91	CN(C)c1ccc(NC(=O)c2cc3ccc(-c4nccc(Nc5ccc6[nH]ncc6c5)n4)cc3[nH]2)cn1 [TDI01221, 6-(4-((1H-indazol-5-yl)amino)pyrimidin-2-yl)-N-(6-(dimethylamino)pyridin-3-yl)-1H-indole-2-carboxamide]
109	CN1CCN(CC(=O)n2ccc3ccc(-c4nccc(Nc5ccc6[nH]ncc6c5)n4)cc32)CC1 [TDI01230, 1-(6-(4-((1H-indazol-5-yl)amino)pyrimidin-2-yl)-1H-indol-1-yl)-2-(4-methylpiperazin-1-yl)ethan-1-one]
134	O=C(Nc1nncs1)c1cc2ccc(-c3nccc(Nc4ccc5[nH]ncc5c4)n3)cc2[nH]1 [TDI01247, 6-(4-((1H-indazol-5-yl)amino)pyrimidin-2-yl)-N-(1,3,4-thiadiazol-2-yl)-1H-indole-2-carboxamide]
62	O=C(Nc1cnc2[nH]ccc2c1)c1cc2ccc(-c3nccc(Nc4ccc5[nH]ncc5c4)n3)cc2[nH]1 [TDI01258, 6-(4-((1H-indazol-5-yl)amino)pyrimidin-2-yl)-N-(1H-pyrrolo[2,3-b]pyridin-5-yl)-1H-indole-2-carboxamide]
94	CC(C)NC(=O)c1cc2ccc(-c3nccc(Nc4ccc(-c5cn[nH]c5)cc4)n3)cc2[nH]1 [TDI01280, 6-(4-((4-(1H-pyrazol-4-yl)phenyl)amino)pyrimidin-2-yl)-N-isopropyl-1H-indole-2-carboxamide]
116	CC(C)NC(=O)c1c[nH]c2ccc(-c3nccc(Nc4ccc5[nH]ncc5c4)n3)cc12 [TDI01285, 5-(4-((1H-indazol-5-yl)amino)pyrimidin-2-yl)-N-isopropyl-1H-indole-3-carboxamide]
72	CN(C)c1cnccc1NC(=O)c1cc2ccc(-c3nccc(Nc4ccc5[nH]ncc5c4)n3)cc2[nH]1 [TDI01289, 6-(4-((1H-indazol-5-yl)amino)pyrimidin-2-yl)-N-(3-(dimethylamino)pyridin-4-yl)-1H-indole-2-carboxamide]
46	O=C(Nc1ccncc1Cl)c1cc2ccc(-c3nccc(Nc4ccc5[nH]ncc5c4)n3)cc2[nH]1 [TDI01290, 6-(4-((1H-indazol-5-yl)amino)pyrimidin-2-yl)-N-(3-chloropyridin-4-yl)-1H-indole-2-carboxamide]
32	O=C(NC1CCOCC1)c1cc2ccc(-c3nccc(Nc4ccc5[nH]ncc5c4)n3)cc2[nH]1 [TDI01291, 6-(4-((1H-indazol-5-yl)amino)pyrimidin-2-yl)-N-(tetrahydro-2H-pyran-4-yl)-1H-indole-2-carboxamide]
242	CC(C)NC(=O)C1Cc2ccc(-c3nccc(Nc4ccc5[nH]ncc5c4)n3)cc2N1 (centres unmarked) [TDI01292, 6-(4-((1H-indazol-5-yl)amino)pyrimidin-2-yl)-N-isopropylindoline-2-carboxamide]
352	CN(C)C(=O)c1cc2ccc(-c3nccc(Nc4ccc(-c5cn[nH]c5)cc4)n3)cc2[nH]1 [TDI01294, 6-(4-((4-(1H-pyrazol-4-yl)phenyl)amino)pyrimidin-2-yl)-N,N-dimethyl-1H-indole-2-carboxamide]
211	CNC(=O)c1cc2ccc(-c3nccc(Nc4ccc(-c5cn[nH]c5)cc4)n3)cc2[nH]1 [TDI01296, 6-(4-((4-(1H-pyrazol-4-yl)phenyl)amino)pyrimidin-2-yl)-N-methyl-1H-indole-2-carboxamide]
463	CC(C)OC(=O)c1cc2ccc(-c3nccc(Nc4ccc(-c5cn[nH]c5)cc4)n3)cc2[nH]1 [TDI01299, isopropyl 6-(4-((4-(1H-pyrazol-4-yl)phenyl)amino)pyrimidin-2-yl)-1H-indole-2-carboxylate]
465	O=C(Nc1ccccn1)c1cc2ccc(-c3nccc(Nc4ccc5[nH]ncc5c4)n3)cc2[nH]1 [TDI01311, 6-(4-((1H-indazol-5-yl)amino)pyrimidin-2-yl)-N-(pyridin-2-yl)-1H-indole-2-carboxamide]
73	CC(C)NC(=O)N1Cc2ccc(-c3nccc(Nc4ccc5[nH]ncc5c4)n3)cc2C1 [TDI01312, 5-(4-((1H-indazol-5-yl)amino)pyrimidin-2-yl)-N-isopropylisoindoline-2-carboxamide]
126	COc1ccc(NC(=O)c2cc3ccc(-c4nccc(Nc5ccc6[nH]ncc6c5)n4)cc3[nH]2)cn1 [TDI01315, 6-(4-((1H-indazol-5-yl)amino)pyrimidin-2-yl)-N-(6-methoxypyridin-3-yl)-1H-indole-2-carboxamide]
87	CN1CCC(n2cc(NC(=O)c3cc4ccc(-c5nccc(Nc6ccc7[nH]ncc7c6)n5)cc4[nH]3)cn2)CC1 [TDI01316, 6-(4-((1H-indazol-5-yl)amino)pyrimidin-2-yl)-N-(1-(1-methylpiperidin-4-yl)-1H-pyrazol-4-yl)-1H-indole-2-carboxamide]
112	CN1CCC(N2CCC(NC(=O)c3cc4ccc(-c5nccc(Nc6ccc7[nH]ncc7c6)n5)cc4[nH]3)CC2)CC1 [TDI01317, 6-(4-((1H-indazol-5-yl)amino)pyrimidin-2-yl)-N-(1′-methyl-[1,4′-bipiperidin]-4-yl)-1H-indole-2-carboxamide]
18	CN1CCC(N2CCCC(NC(=O)c3cc4ccc(-c5nccc(Nc6ccc7[nH]ncc7c6)n5)cc4[nH]3)C2)CC1 (centres unmarked) [TDI01318, 6-(4-((1H-indazol-5-yl)amino)pyrimidin-2-yl)-N-(1′-methyl-[1,4′-bipiperidin]-3-yl)-1H-indole-2-carboxamide]
410	CN1CCC2(CC1)CCN(C(=O)c1cc3ccc(-c4nccc(Nc5ccc6[nH]ncc6c5)n4)cc3[nH]1)CC2 [TDI01320, (6-(4-((1H-indazol-5-yl)amino)pyrimidin-2-yl)-1H-indol-2-yl)(9-methyl-3,9-diazaspiro[5.5]undecan-3-yl)methanone]
101	O=C(NC1CC1)c1cc2ccc(-c3nccc(Nc4ccc(-c5cn[nH]c5)cc4)n3)cc2[nH]1 [TDI01324, 6-(4-((4-(1H-pyrazol-4-yl)phenyl)amino)pyrimidin-2-yl)-N-cyclopropyl-1H-indole-2-carboxamide]

Source: patent US10329282B2, “Rho-associated protein kinase inhibitor, pharmaceutical composition comprising the same, as well as preparation method and use thereof” (Beijing Tide Pharmaceutical Co., Ltd., priority 2017, dated 2019)
